Test results taken from paper PMC10866072, “Design, synthesis, molecular modelling and biological evaluation of novel 6-amino-5-cyano-2-thiopyrimidine derivatives as potent anticancer agents against leukemia and apoptotic inducers” (Journal of Enzyme Inhibition and Medicinal Chemistry, 2024).

Key:
[1] = test system: HCT-116, HepG-2, MCF-7, and A549 cells; parameters: method as in PMID 32959865; settings: cited from earlier work
[2] = test system: EGFRWT; parameters: method as in PMID 32959865; settings: cited from earlier work
[3] = test system: caspase-3 in HepG-2; parameters: method as in PMID 32959865; settings: cited from earlier work
[4] = test system: mutant EGFRT790M; parameters: method as in PMID 32959865; settings: cited from earlier work
[5] = test system: tumour cell lines; parameters: method as in PMID 32027179; settings: broad spectrum antitumor activity, cited from earlier work
[6] = MTT cytotoxicity on normal cells; format: cell-based; settings: human, WI-38 cells (normal lung fibroblasts), WI-38 normal cells, mean ± SD of three experiments, read-out: IC50 (cytotoxic activity)
Procedure: The American Type Culture Collection provided WI-38 cells (normal lung cells). The cells were grown in DMEM with 10% heat-inactivated FBS (Hyclone), 10 µg/ml of insulin (Sigma), and 1% penicillin-streptomycin. The remaining chemicals and reagents were all from Sigma or Invitrogen. The MTT test was used to evaluate cytotoxicity, as described previously. Graph pad Prism software (San Diego, CA) was used to estimate the 50% inhibitory concentration (IC50) from dose response curve graphic plots for each conc.

[7] = test system: SW480; parameters: method as in PMID 32645482; settings: cited from earlier work
[8] = test system: GES1; parameters: method as in PMID 27771599; settings: cited from earlier work
[9] = test system: MGC-803 cell line; parameters: method as in PMID 27771599; settings: cited from earlier work
[10] = test system: HeLa; parameters: method as in PMID 31525523; settings: cited from earlier work
[11] = test system: A549; parameters: method as in PMID 31525523; settings: cited from earlier work

For `CCCCSC1=NC(c2ccccc2)=C(C#N)C(Nc2ccccn2)N1` (stereo not shown) [Compound XIV], the “activity relative to erlotinib” value [1] is given as 4.5- to 8.4 fold, the IC50 [2] is given as 0.09 µM and the “increase of caspase-3 level compared to the control” value [3] is given as 6.5 times. The IC50 [4] was 4.03 µM.
In the case of `N#CC1=C(c2ccc(F)cc2)N=C(N/N=C/c2c[nH]c3ccccc23)NC1N1CCOCC1` (stereo not shown) [Compound XVII], the “TGI (total growth inhibition)” value [5] is given as 28.66 µM and the GI50 ([5]; read-out: GI50 (median growth inhibition)) is given as 6.15 µM.
`C[C@H](Nc1ncnc2[nH]cnc12)c1cc2cccc(Cl)c2c(=O)n1-c1ccccc1` [Duvelisib] gave an IC50 [6] of 22.8 ± 0.65 µM.
In the case of `NC1=NC(NC(=O)Nc2ccc(Cl)c(C(F)(F)F)c2)=CC(c2ccccc2)N1` (stereo not shown) [XIX], the IC50 [7] is listed as 11.1 µM.
For `C/C(=N\Nc1nc(Sc2ccccc2)nc2c1nnn2-c1ccccc1)c1ccccc1O` [XXII], the IC50 [8] is given as 56.2 µM and the IC50 [9] is given as 0.87 µM.
For `COc1cc(C2=NC3N=C(C)C(C(C)=O)C(c4ccc([N+](=O)[O-])cc4)N3N2)cc(OC)c1OC` (stereo not shown) [XXI], the IC50 [10] is given as 0.75 µM and the IC50 [11] is given as 1.02 µM.
Work on `C#Cc1cccc(Nc2ncnc3cc(OCCOC)c(OCCOC)cc23)c1` [erlotinib] yielded an IC50 [6] of 22.8 ± 0.65 µM.
